Tested on: thrips (Frankliniella occidentalis)
Test: Example 1: powder adherence on thrips body
Format: in vivo
Details: mesh cage, Petri dish filled with powdery carrier
Description: From 250 individual thrips (Frankliniella occidentalis) sourced from the company Bionema Limited in Swansea, 50 were released in mesh cages where fresh flowers and green beans were growing, and which contained a Petri dish filled with one powdery carriers.

O=C(CO)[C@@H](O)[C@H](O)[C@H](O)CO [fructose]
fate of thrips after contact with the powder: died thereafter

CCCCCCCCCCCCCCCCCC(=O)O [stearic acid]
fate of thrips after contact with the powder: died thereafter
